Experiments:
Experiment in all cases: relative viability (nuclei count vs DMSO), 5 days (fraction); higher = more cells survive
Axitinib + Dasatinib = compound: CNC(=O)c1ccccc1Sc1ccc2c(/C=C/c3ccccn3)n[nH]c2c1 [Axitinib] + Cc1nc(Nc2ncc(C(=O)Nc3c(C)cccc3Cl)s2)cc(N2CCN(CCO)CC2)n1 [Dasatinib] (partner 0.075 µM)
Outline: (§1)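 Nuclei were stained with Hoechst during a one-step fixation (final 0.05% Triton X-100, 1% formaldehyde, 1 ug/ml Hoechst) carried out 5 days after dosing, then counted on 4× images. The cells, lung cancer lines in 1536-well plates, had been dosed by pin tool the day after seeding with one drug alone or a fixed anchor-drug dose plus five library-drug doses (not always all listed) in √10 steps. Relative viability is the nuclei count in treated wells divided by that in vehicle wells, and each value is the median of duplicate plates.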

[1] = compound: CC1=CC=C(C=C1)C(=O)CN2C3=C(CCCC3)SC2=N [Pifithrin_alpha] + Nc1ncn([C@H]2C[C@H](O)[C@@H](CO)O2)c(=O)n1 [Decitabine] (partner 2 µM)
Outline: as §1

Bemcentinib + Bortezomib = compound: Nc1nc(Nc2ccc3c(c2)CC[C@@H](N2CCCC2)CC3)nn1-c1cc2c(nn1)-c1ccccc1CCC2 [Bemcentinib] + CC(C)C[C@H](NC(=O)[C@H](Cc1ccccc1)NC(=O)c1cnccn1)B(O)O [Bortezomib] (partner 0.002 µM)
Outline: as §1

Bemcentinib + Trametinib = compound: Nc1nc(Nc2ccc3c(c2)CC[C@@H](N2CCCC2)CC3)nn1-c1cc2c(nn1)-c1ccccc1CCC2 [Bemcentinib] + CC(=O)Nc1cccc(-n2c(=O)n(C3CC3)c(=O)c3c(Nc4ccc(I)cc4F)n(C)c(=O)c(C)c32)c1 [Trametinib] (partner 0.02 µM)
Outline: as §1

| Cell Line | relative viability (Axitinib + Dasatinib; first compound 0.005 µM) | relative viability (Axitinib + Dasatinib; first compound 0.01581 µM) | relative viability (Axitinib + Dasatinib; first compound 0.05 µM) | relative viability (Axitinib + Dasatinib; first compound 0.1581 µM) | relative viability (Axitinib + Dasatinib; first compound 0.5 µM) | relative viability ([1]; first compound 1 µM) | relative viability ([1]; first compound 3.162 µM) | relative viability ([1]; first compound 10 µM) | relative viability ([1]; first compound 31.62 µM) | relative viability ([1]; first compound 100 µM) | relative viability (Bemcentinib + Bortezomib; first compound 0.1265 µM) | relative viability (Bemcentinib + Bortezomib; first compound 0.4 µM) | relative viability (Bemcentinib + Bortezomib; first compound 1.265 µM) | relative viability (Bemcentinib + Bortezomib; first compound 4 µM) | relative viability (Bemcentinib + Trametinib; first compound 0.04 µM) | relative viability (Bemcentinib + Trametinib; first compound 0.1265 µM) | relative viability (Bemcentinib + Trametinib; first compound 0.4 µM) | relative viability (Bemcentinib + Trametinib; first compound 1.265 µM) | relative viability (Bemcentinib + Trametinib; first compound 4 µM) | relative viability (Bemcentinib + Bortezomib; first compound 0.04 µM) |
| --- | --- | --- | --- | --- | --- | --- | --- | --- | --- | --- | --- | --- | --- | --- | --- | --- | --- | --- | --- | --- |
| A-427 | 0.69 | 0.644 | 0.807 | 0.697 | 0.769 | 0.485 | 0.582 | 0.543 | 0.485 | 0.531 | 0.971 | 0.871 | 0.942 | 0.967 | 0.711 | 0.696 | 0.812 | 0.773 | 0.668 |  |
| LXF-289 | 0.242 | 0.208 | 0.285 | 0.304 | 0.271 | 0.359 | 0.335 | 0.388 | 0.366 | 0.369 | 1.06 | 1.03 | 1.06 | 1.07 | 0.705 | 0.681 | 0.648 | 0.7 | 0.773 | 1.02 |
| NCI-H1355 | 0.723 | 0.766 | 0.779 | 0.757 | 0.642 | 0.308 | 0.349 | 0.339 | 0.29 | 0.304 | 1.3 | 1.15 | 1.24 | 1.26 | 0.407 | 0.414 | 0.462 | 0.405 | 0.509 | 1.22 |
| NCI-H1437 | 0.396 | 0.388 | 0.448 | 0.388 | 0.442 | 0.626 | 0.605 | 0.563 | 0.586 | 0.364 | 0.546 | 0.503 | 0.405 | 0.489 | 0.539 | 0.683 | 0.486 | 0.455 | 0.644 | 0.54 |
| HCC-366 | 0.7 | 0.646 | 0.711 | 0.581 | 0.455 | 0.308 | 0.326 | 0.403 |  | 0.297 | 1.16 | 1.35 | 1.1 | 1.06 | 0.368 | 0.428 | 0.407 | 0.409 | 0.419 | 0.985 |
| NCI-H1299 |  |  |  |  |  |  |  |  |  |  | 1.03 | 1.03 | 1.04 | 1.09 |  |  |  |  |  | 0.981 |
| 201T | 0.557 | 0.553 | 0.567 | 0.526 | 0.562 | 0.866 | 0.866 | 0.815 | 0.701 | 0.74 | 1.15 | 1.12 | 0.978 | 1.1 | 0.731 | 0.778 | 0.744 | 0.743 | 0.734 | 0.864 |
| IA-LM |  |  |  |  |  |  |  |  |  |  | 0.696 | 0.799 | 0.923 | 0.808 |  |  |  |  |  | 0.663 |
| NCI-H1734 | 0.515 | 0.491 | 0.507 | 0.499 | 0.446 | 0.497 | 0.463 | 0.502 | 0.441 | 0.556 | 0.871 | 1.2 | 0.953 | 0.947 | 0.679 | 0.743 | 0.739 | 0.625 | 0.701 | 0.935 |
| NCI-H1993 | 0.609 | 0.708 | 0.735 | 0.712 | 0.52 | 0.514 | 0.494 | 0.609 | 0.467 | 0.505 | 1.17 | 1.14 | 0.921 | 1.2 | 0.71 | 0.394 | 0.467 | 0.493 | 0.482 | 1.12 |
| NCI-H2085 | 0.237 | 0.22 | 0.216 | 0.247 | 0.199 | 0.523 | 0.419 | 0.473 | 0.473 | 0.503 | 1.11 | 1.03 | 0.997 | 0.973 | 0.538 | 0.667 | 0.526 | 0.444 | 0.516 | 1.01 |
| EBC-1 |  |  |  |  |  |  |  |  |  |  | 0.547 | 0.525 | 0.458 | 0.585 |  |  |  |  |  | 0.585 |
| COR-L23 | 0.53 | 0.542 | 0.438 | 0.493 | 0.674 | 0.412 | 0.399 | 0.404 |  | 0.328 | 1.14 | 1.17 | 1.27 | 1.24 | 0.569 | 0.696 | 0.66 | 0.641 | 0.658 | 1.16 |
| NCI-H1793 | 0.406 | 0.405 | 0.394 | 0.293 | 0.301 | 0.442 | 0.464 | 0.489 | 0.323 | 0.454 |  |  |  |  | 0.442 | 0.436 | 0.421 | 0.442 | 0.365 |  |
| A549 |  |  |  |  |  |  | 0.249 | 0.215 | 0.207 | 0.327 |  |  |  |  |  |  |  |  |  |  |
| EPLC-272H | 0.342 | 0.337 | 0.372 | 0.353 | 0.241 |  | 0.268 | 0.39 | 0.375 | 0.358 | 1 | 0.91 | 0.79 | 0.876 | 0.268 | 0.287 | 0.329 | 0.289 | 0.295 |  |
| NCI-H2009 | 0.303 | 0.35 | 0.355 | 0.301 | 0.413 | 0.361 | 0.349 | 0.404 | 0.344 | 0.409 | 1.05 | 1.09 | 1.09 | 1.19 | 0.231 | 0.321 | 0.232 | 0.273 | 0.268 | 0.986 |
| ChaGo-K-1 | 0.611 | 0.552 | 0.583 | 0.423 | 0.611 | 0.491 | 0.533 | 0.515 | 0.407 | 0.496 | 1.1 | 0.98 | 0.804 | 0.766 | 0.911 | 0.945 | 0.939 | 0.877 | 0.902 | 0.905 |
| SW 900 | 0.439 | 0.555 | 0.663 | 0.653 | 0.709 | 0.395 | 0.381 | 0.423 | 0.389 | 0.447 |  |  |  |  | 0.56 | 0.947 | 0.927 | 0.953 | 0.933 |  |
